Results published in BindingDB's records for patent US10780095 (THE REGENTS OF THE UNIVERSITY OF CALIFORNIA, 2020).

Target: Prokineticin receptor 1 (Human, UniProt Q8TCW9)
Test: Aequorin-Based Luminescent Assay
Protocol: An aequorin-based luminescent assay for calcium mobilization was used to measure mobilization of intracellular Ca2+ (Bullock et al., Mol Pharmacol 65, 582-588, 2004). Chinese hamster ovary (CHO) cells stably expressing photoprotein aequorin and recombinant PKR1 or PKR2 were tested by this method. Briefly, the cells were charged in Opti-MEM (Invitrogen) containing 8 μM of coelenterazine cp at 37° C. for 2 hours. Cells were detached by brief trypsinization and maintained in Hank's Balanced Salt Solution (HBSS) plus 10 mM HEPES (pH7.5) and 0.1% BSA at about 5×10^5 cells/ml. Luminescence measurements were made using a Berthold luminometer.All compounds were diluted in HBSS plus 10 mM HEPES (pH7.5) and 0.1% BSA. To test the agonist activity, 100 μl of cells were injected into the tubes with 20 μl of compounds. For antagonist assays, 80 μl cells were incubated in the tubes with 20 μl different concentrations of antagonists at room temperature for 20 minutes, and then 100 μl of recombinant PK2 were injected. The IC50 obtained from the assays were then converted to Ki values using the formula: IC50/(1+[PK2]/EC50PK2).

Prokineticin receptor 1, sequence (Q8TCW9 whole entry): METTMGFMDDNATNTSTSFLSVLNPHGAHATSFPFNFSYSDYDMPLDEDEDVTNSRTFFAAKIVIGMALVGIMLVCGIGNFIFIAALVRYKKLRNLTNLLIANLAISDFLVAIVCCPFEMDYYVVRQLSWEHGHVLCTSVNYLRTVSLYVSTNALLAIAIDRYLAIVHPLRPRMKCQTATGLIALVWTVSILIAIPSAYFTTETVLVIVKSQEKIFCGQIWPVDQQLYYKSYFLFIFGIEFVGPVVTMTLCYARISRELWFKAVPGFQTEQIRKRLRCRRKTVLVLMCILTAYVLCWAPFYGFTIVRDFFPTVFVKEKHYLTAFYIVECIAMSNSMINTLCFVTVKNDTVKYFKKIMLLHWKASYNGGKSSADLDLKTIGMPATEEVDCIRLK

Ki [nM] | Compound
373 | COc1cc(F)cc(CN2CCC(C(=O)N(Cc3cc(Cl)c4c(c3)OCCCO4)CC(C)C)C2)c1 (configuration not stated) [US10780095, Structure TABLE 1.16]
41.5 | COc1cc(F)cc(CN2CCC(C(=O)N(Cc3cc(Cl)c4c(c3)OCCCO4)CC(C)C)C2)c1 (configuration not stated) [US10780095, Structure TABLE 1.18]
